From publication PMC5684552 (Evidence-based Complementary and Alternative Medicine : eCAM, 2017)

Legend:
[1] = molecular target: human TRPV1 receptor channel (Homo sapiens, UniProt Q8NER1); test: Two-electrode voltage clamp of capsaicin-induced current in Xenopus oocytes expressing wild type human TRPV1; format: cell-based; details: for inhibition of capsaicin-induced current: 100 μM gomisin A plus 1 μM capsaicin, voltage ramp
control oocytes = test: Two-electrode voltage clamp of control oocytes injected with H2O; format: cell-based, X. laevis; details: for inward peak current in control oocytes: oocytes injected with 40 nl H2O
TRPV1 R455A mutant = TRPV1 R455A mutant (Homo sapiens, UniProt Q8NER1, R456A, species not given); format: cell-based; details: holding potential −80 mV
TRPV1 Y454A mutant = TRPV1 Y454A mutant (Homo sapiens, UniProt Q8NER1, Y455A); format: cell-based; details: holding potential −80 mV
TRPV1 V469A mutant = TRPV1 V469A mutant (Homo sapiens, UniProt Q8NER1, form not given, species not given); format: cell-based; details: holding potential −80 mV
TRPV1 K466A mutant = TRPV1 K466A mutant (Homo sapiens, UniProt Q8NER1, form not given, species not given); format: cell-based; details: holding potential −80 mV
TRPV1 T468A mutant = TRPV1 T468A mutant (Homo sapiens, UniProt Q8NER1, T469A, species not given); format: cell-based; details: holding potential −80 mV
TRPV1 YNA2 double mutant = TRPV1 YNA2 double mutant (Homo sapiens, UniProt Q8NER1, Y454A, form not given, species not given); format: cell-based; details: holding potential −80 mV
TRPV1 L465A mutant = TRPV1 L465A mutant (Homo sapiens, UniProt Q8NER1, form not given, species not given); format: cell-based; details: holding potential −80 mV
TRPV1 V456A mutant = TRPV1 V456A mutant (Homo sapiens, UniProt Q8NER1, V456A, species not given); format: cell-based; details: holding potential −80 mV
TRPV1 Y453A mutant = TRPV1 Y453A mutant (Homo sapiens, UniProt Q8NER1, Y454A, species not given); format: cell-based; details: holding potential −80 mV
TRPV1 A452Y mutant = TRPV1 A452Y mutant (Homo sapiens, UniProt Q8NER1, A453Y); format: cell-based; details: holding potential −80 mV
TRPV1 N467A mutant = TRPV1 N467A mutant (Homo sapiens, UniProt Q8NER1, form not given, species not given); format: cell-based; details: holding potential −80 mV
TRPV1 N467A mutant, sequence (Q8NER1 whole entry, stated change not applied): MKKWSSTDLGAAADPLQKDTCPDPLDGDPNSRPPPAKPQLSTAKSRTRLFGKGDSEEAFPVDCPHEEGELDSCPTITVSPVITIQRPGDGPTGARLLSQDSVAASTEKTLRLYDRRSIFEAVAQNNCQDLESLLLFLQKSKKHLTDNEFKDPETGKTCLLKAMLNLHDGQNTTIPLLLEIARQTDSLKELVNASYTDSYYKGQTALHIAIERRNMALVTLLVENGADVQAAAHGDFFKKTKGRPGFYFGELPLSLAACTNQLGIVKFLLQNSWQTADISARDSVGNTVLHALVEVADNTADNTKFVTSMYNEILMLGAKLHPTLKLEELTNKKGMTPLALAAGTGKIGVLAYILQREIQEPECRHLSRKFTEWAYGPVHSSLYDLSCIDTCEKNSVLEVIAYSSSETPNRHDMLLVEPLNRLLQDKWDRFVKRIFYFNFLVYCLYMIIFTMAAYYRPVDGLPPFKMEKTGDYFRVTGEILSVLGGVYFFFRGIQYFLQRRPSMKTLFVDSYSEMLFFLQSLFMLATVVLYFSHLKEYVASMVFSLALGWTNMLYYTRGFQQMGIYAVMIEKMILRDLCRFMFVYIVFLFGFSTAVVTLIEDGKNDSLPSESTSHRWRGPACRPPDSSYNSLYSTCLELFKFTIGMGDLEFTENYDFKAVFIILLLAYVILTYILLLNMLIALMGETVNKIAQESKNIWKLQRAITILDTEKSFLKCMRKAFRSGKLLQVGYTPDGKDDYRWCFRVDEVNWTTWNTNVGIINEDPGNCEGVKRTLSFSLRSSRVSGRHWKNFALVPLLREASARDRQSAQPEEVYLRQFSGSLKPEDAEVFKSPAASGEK

human TRPV1 receptor channel, sequence (Q8NER1 whole entry): as the sequence (Q8NER1 whole entry, stated change not applied) above
TRPV1 T468A mutant, sequence (Q8NER1 whole entry T469A): as the sequence (Q8NER1 whole entry, stated change not applied) above, with T469A counted along it
TRPV1 Y454A mutant, sequence (Q8NER1 whole entry Y455A): as the sequence (Q8NER1 whole entry, stated change not applied) above, with Y455A counted along it
TRPV1 K466A mutant, sequence (Q8NER1 1-837 isoform Q8NER1-3, stated change not applied): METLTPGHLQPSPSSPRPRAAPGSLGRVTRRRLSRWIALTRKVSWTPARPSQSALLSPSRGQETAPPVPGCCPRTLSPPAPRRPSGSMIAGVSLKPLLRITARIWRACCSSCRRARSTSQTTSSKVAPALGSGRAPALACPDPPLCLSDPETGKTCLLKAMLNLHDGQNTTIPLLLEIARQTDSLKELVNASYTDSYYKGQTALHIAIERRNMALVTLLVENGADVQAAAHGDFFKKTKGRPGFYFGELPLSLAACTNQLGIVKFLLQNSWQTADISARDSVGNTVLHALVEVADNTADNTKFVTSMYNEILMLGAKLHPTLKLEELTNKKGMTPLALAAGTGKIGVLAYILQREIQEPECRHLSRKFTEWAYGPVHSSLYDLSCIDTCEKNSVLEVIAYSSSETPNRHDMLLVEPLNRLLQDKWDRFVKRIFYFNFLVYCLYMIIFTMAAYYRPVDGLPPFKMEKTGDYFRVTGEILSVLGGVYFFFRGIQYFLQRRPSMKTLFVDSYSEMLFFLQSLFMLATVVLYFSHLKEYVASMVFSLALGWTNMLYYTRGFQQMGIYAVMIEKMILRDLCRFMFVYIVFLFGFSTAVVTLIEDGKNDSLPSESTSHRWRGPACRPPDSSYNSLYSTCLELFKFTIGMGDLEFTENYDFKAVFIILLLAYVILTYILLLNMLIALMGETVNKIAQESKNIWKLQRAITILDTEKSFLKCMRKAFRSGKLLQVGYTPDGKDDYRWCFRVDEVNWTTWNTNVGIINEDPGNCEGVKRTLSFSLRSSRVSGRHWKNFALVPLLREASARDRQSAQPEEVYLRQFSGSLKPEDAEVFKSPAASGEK
TRPV1 R455A mutant, sequence (Q8NER1 whole entry R456A): as the sequence (Q8NER1 whole entry, stated change not applied) above, with R456A counted along it
TRPV1 Y453A mutant, sequence (Q8NER1 whole entry Y454A): as the sequence (Q8NER1 whole entry, stated change not applied) above, with Y454A counted along it
TRPV1 V456A mutant, sequence (Q8NER1 1-837 isoform Q8NER1-3 V456A): as the sequence (Q8NER1 1-837 isoform Q8NER1-3, stated change not applied) above, with V456A counted along it
TRPV1 L465A mutant, sequence (Q8NER1 whole entry, stated change not applied): as the sequence (Q8NER1 whole entry, stated change not applied) above
TRPV1 V469A mutant, sequence (Q8NER1 whole entry, stated change not applied): as above
TRPV1 A452Y mutant, sequence (Q8NER1 whole entry A453Y): as the sequence (Q8NER1 whole entry, stated change not applied) above, with A453Y counted along it
TRPV1 YNA2 double mutant, sequence (Q8NER1 whole entry Y454A, form open): as the sequence (Q8NER1 whole entry, stated change not applied) above, with Y454A counted along it

COc1cc(CNC(=O)CCCC/C=C/C(C)C)ccc1O [capsaicin, reference compound]
reversal membrane voltage potential of capsaicin-induced inward current ([1]; 1 μM capsaicin, ramp −100 to +80 mV): ~−10 mV
effect of agonist on current ([1]; 1 μM, holding potential −80 mV): stimulated an inward current
inward peak current in control oocytes (control oocytes; 1 μM): did not result in any inward peak current

Oc1cc2c(cc1O)CN(C(=S)NCCc1ccc(Cl)cc1)CCC2 [capsazepine, reference compound]
effect of antagonist on capsaicin-stimulated inward current ([1]; 10 μM capsazepine cotreated with 1 μM capsaicin): blocked the capsaicin-stimulated inward current
inhibition at 10 µM ([1]; 10 μM capsazepine cotreated with 1 μM capsaicin, −80 mV, read-out: percent inhibition of capsaicin-induced inward current): 79.5 ± 4.5%

gomisin A
Vmax (TRPV1 R455A mutant): 64.4 ± 2.6
n (Hill coefficient) (TRPV1 R455A mutant): 1.7 ± 0.6
Vmax (TRPV1 Y454A mutant): 59.2 ± 3.0
n (Hill coefficient) (TRPV1 Y454A mutant): 2.2 ± 0.8
Vmax (TRPV1 V469A mutant): 72.5 ± 5.6
n (Hill coefficient) (TRPV1 V469A mutant): 2.1 ± 0.7
Vmax (TRPV1 K466A mutant): 64.7 ± 2.1
n (Hill coefficient) (TRPV1 K466A mutant): 2.3 ± 0.5
Vmax (TRPV1 T468A mutant): 67.9 ± 1.5
n (Hill coefficient) (TRPV1 T468A mutant): 1.6 ± 0.5
Vmax (TRPV1 YNA2 double mutant): 17.9 ± 6.5
Vmax (TRPV1 L465A mutant): 68.3 ± 3.5
n (Hill coefficient) (TRPV1 L465A mutant): 1.8 ± 0.3
effect of compound alone on currents of human TRPV1 receptor ([1]; 100 μM alone, holding potential −80 mV): had no effect
percent inhibition of capsaicin-induced inward current ([1]; 100 μM gomisin A coapplied with 1 μM capsaicin, −80 mV): 46.5 ± 4.5%
inhibition of capsaicin-induced current ([1]; at +80 mV): 42.6 ± 11.2%
inhibition of capsaicin-induced current ([1]; at −100 mV): 71.1 ± 16.2%
Vmax ([1]; […], inhibition of capsaicin-induced current, holding potential −80 mV): 72.9 ± 1.0
manner of attenuation of capsaicin-elicited inward peak currents ([1]; cotreatment with capsaicin): reversible, voltage insensitive, concentration dependent, and noncompetitive
percent inhibition of capsaicin-induced inward current ([1]; preapplication of gomisin A, 1 μM capsaicin): 48.2 ± 7.2%
inward current in control oocytes on coapplication (control oocytes; 10 μM gomisin A coapplied with 1 μM capsaicin, H2O-injected oocytes): did not result in an inward current
inward peak current in control oocytes (control oocytes; 10 μM): did not result in any inward peak current
Vmax (TRPV1 V456A mutant): 91.5 ± 2.6
n (Hill coefficient) (TRPV1 V456A mutant): 1.8 ± 0.8
Vmax (TRPV1 Y453A mutant): 38.3 ± 2.4
n (Hill coefficient) (TRPV1 Y453A mutant): 1.2 ± 0.5
Vmax (TRPV1 A452Y mutant): 79.2 ± 3.1
n (Hill coefficient) (TRPV1 A452Y mutant): 2.2 ± 0.8
Vmax (TRPV1 N467A mutant): 24.7 ± 2.0
n (Hill coefficient) (TRPV1 N467A mutant): 1.3 ± 0.5
